Reference: patent publication US20220220106A1, “QUINOLINE COMPOUNDS AND PHARMACEUTICAL COMPOSITIONS AND USES THEREOF” (Academy of Military Medical Sciences, priority 2019, published 2022)
Like-named read-outs stand apart in the source and are kept apart here.

Assays:
[1] = test system: Enterovirus 71 (EV71) H strain; experiment: In vitro anti-EV71 activity (antiviral activity in RD cells, CellTiter-Glo); assay type: cell-based; conditions: for IC50: EV71 H strain, RD cells, 4 days, CellTiter-Glo, read-out: IC50; for in vitro anti-EV71 activity, in words: EV71, RD cells
Description: According to the mass and molecular weight of the compound to be tested, the compound to be tested was dissolved to 100 mM (mmol/L) with DMSO.
Detection of Antiviral Activity:
(1) First, the compound to be tested was diluted to 800 μM with cell maintenance solution (DMEM+2% FBS, Gibco, catalog numbers: 11995-065, 1600-044), and three-fold gradient dilution was performed to prepare 10 concentrations in total. The diluted compound was added to a 96-well plate with white wall and transparent bottom, 50 μl per well. To both the cell control group and the virus control group, an equal volume of the cell maintenance solution was added.
(2) EV71 virus (purchased from ATCC) was taken out from the −80° C. refrigerator and equilibrated to room temperature.
(3) The virus seed was diluted with a virus growth solution (DMEM+2% FBS, Gibco, catalog numbers: 11995-065, 1600-044) to 100TCID50, the diluted virus seed was added to the 96-well plate of (1), with […] per well. The same volume of the virus growth solution was added to the cell control group.
(4) RD cells (purchased from ATCC) were inoculated at a concentration of 1*10^5/mL into the 96-well plate of (1), with 100 μL per well, to reach a final volume of 200 μL per well. The final concentration of drug was 0.25 times the initial concentration.
(5) RD cells were cultured at 37° C. for 4 days for testing.
(6) The Buffer of CellTiter-Glo® luminescent cell viability assay reagent (Promega) was mixed with the substrate in the dark to prepare a working solution.
(§1) (7) The culture medium in the plate was discarded, the plate was dried by patting, 100 μL of the detection reagent was added to each well, and the 96-well plate was shaken on an orbital shaker for 4 minutes to induce cell lysis. After keeping in the dark and subjecting to signal stabilization for 15 minutes, the chemiluminescence unit was detected by using MD5 microplate reader (Molecular Devices), and the plate reading program was performed according to the CellTiter-Glo preset program.
The inhibition rate-concentration curve was fitted to S-curve by using origin8.0 software to calculate the IC50 value of the compound to be tested.
(§2) The formula for calculating the inhibition rates of drug at different dilution degrees was as follows: inhibition rate (%)=(average value of cell control group−value of experimental group)/(average value of cell control group−minimum value of experimental group)*100
(§3) The inhibition rate-concentration curve was fitted to S-curve by using origin8.0 software, and the IC50 value of the compound to be tested was calculated. The same method was used to calculate the TD50 value, and the selection index SI=TD50/IC50 was calculated according to the half maximal inhibitory concentration IC50 and the median toxic dose TD50.

RD cells = experiment: Detection of cytotoxicity in RD cells (CellTiter-Glo); assay type: cell-based; conditions: 4 days, CellTiter-Glo, median toxic dose
Description: Detection of Cytotoxicity:
(1) The compound to be tested was diluted to a concentration of 400 μM with the cell maintenance solution, and 3-fold gradient dilution was carried out to obtain 10 concentrations in total.
(2) The diluted compound was added to a 96-well plate with white wall and transparent bottom, with 100 μL per well. An equal volume of the cell maintenance solution was added to the cell control group.
(3) RD cells were inoculated into the above 96-well plate at a concentration of 1*10^5/mL, with 100 μL per well, to reach a final volume of 200 μL per well, and the final concentration of drug was 0.5 times the pretreatment concentration.
(4) The RD cells were cultured at 37° C. for 4 days for testing.
(5) The Buffer of CellTiter-Glo® luminescent cell viability assay reagent was mixed with the substrate in the dark to prepare a working solution.
as §1, with “(6)” for “(7)”, “detected,” for “detected by using MD5 microplate reader (Molecular Devices),”
as §2, §3

Compound	IC50 ([1]; Enterovirus A, 96 h)	TD50 (RD cells)	melting point	in vitro anti-EV71 activity, in words [1]	IC50 [1]
N#CC/C=C/c1ccc2ncc3oc(=O)n(-c4cccc(C(F)(F)F)c4)c3c2c1 [HTL-6-31, (E)-8-(3-cyano-propenyl)-1-[3-(trifluoromethyl)phenyl]oxazolo[5,4-c]quinolin-2(1H)-one]	> 200 µM	9.20 ± 2.34 µM	177 to 179 °C		
CC(=O)/C=C/c1cnc2ccc(-c3ccc(C(F)(F)F)cc3)cc2c1Nc1cccc(C(F)(F)F)c1 [HTL-3-18, (E)-6-[4-(trifluoromethyl)phenyl]-4-[3-(trifluoromethyl)phenyl]aminoquinoline-3-butenone]	> 200 µM	>200 µM	189 to 191 °C		
CC(C)(C)OC(=O)/C=C/c1ccc2ncc3oc(=O)n(-c4cccc(C(F)(F)F)c4)c3c2c1 [HTL-6-35, (E)-8-(2-tert-butoxycarbonyl-vinyl)-1-[3-(trifluoromethyl)phenyl]oxazolo[5,4-c]quinolin-2(1H)-one]	> 200 µM	76.02 ± 11.52 µM	186 to 187 °C		
CC(=O)/C=C/c1cnc2ccc(-c3ccc(CC(C)C)cc3)cc2c1Nc1cccc(C(F)(F)F)c1 [HTL-3-41, (E)-6-(4-isobutyl)phenyl-4-[3-(trifluoromethyl)phenyl]aminoquinoline-3-butenone]	> 200 µM	0.99 ± 0.24 µM	187 to 191 °C		
CC(=O)/C=C/c1cnc2ccc(-c3ccc(F)cc3F)cc2c1Nc1cccc(C(F)(F)F)c1 [HTL-3-33, (E)-6-(2,4-difluoro)phenyl-4-[3-(trifluoromethyl)phenyl]aminoquinoline-3-butenone]	> 200 µM	0.72 ± 0.66 µM	162 to 164 °C		
CC(=O)/C=C/c1cnc2ccc(-c3ccc(F)nc3)cc2c1Nc1cccc(C(F)(F)F)c1 [HTL-3-43, (E)-6-[3-(6-fluoro)pyridyl]-4-[3-(trifluoromethyl)phenyl]aminoquinoline-3-butenone]	> 200 µM	2.23 ± 0.08 µM	133 to 134 °C		
O=C(Nc1ccc(-c2ccc3ncc4oc(=O)n(-c5cccc(C(F)(F)F)c5)c4c3c2)cn1)OCc1ccccc1 [HTL-7-23, 8-[3-(6-benzyloxyamido)pyridyl]-1-[3-(trifluoromethyl)phenyl]oxazolo[5,4-c]quinolin-2(1H)-one]	> 200 µM	>200 µM	284 to 286 °C		
NC(=O)/C=C/c1ccc2ncc3ccc(=O)n(-c4cccc(C(F)(F)F)c4)c3c2c1 [HTL-7-24, (E)-9-(2-carbamoyl-vinyl)-2-oxo-1-[3-(trifluoromethyl)phenyl]-1,2-dihydrobenzo[h][1,6]naphthyridine]	0.09 ± 0.01 µM	0.15 ± 0.01 µM	307 to 308 °C	strong inhibitory activity	
Nc1ccc(-c2ccc3ncc4oc(=O)n(-c5cccc(C(F)(F)F)c5)c4c3c2)cn1 [HTL-4-32, 8-[3-(6-amino)pyridyl]-1-[3-(trifluoromethyl)phenyl]oxazolo[5,4-c]quinolin-2(1H)-one]	5.57 ± 1.53 µM	14.5 ± 6.4 µM	146 to 147 °C	moderate inhibitory activity	
CC(=O)/C=C/c1cnc2ccc(-c3cn[nH]c3)cc2c1Nc1cccc(C(F)(F)F)c1 [HTL-3-26, (E)-6-(1H-4-pyrazolyl)-4-[3-(trifluoromethyl)phenyl]aminoquinoline-3-butenone]	0.85 ± 0.03 µM	1.43 ± 1.62 µM	177 to 179 °C	moderate anti-EV71 activity	
NC(=O)NC/C=C/c1ccc2ncc3ccc(=O)n(-c4cccc(C(F)(F)F)c4)c3c2c1 [HTL-7-25, (E)-9-[3-ureido-propenyl]-2-oxo-1-[3-(trifluoromethyl)phenyl]-1,2-dihydrobenzo[h][1,6]naphthyridine]	0.41 ± 0.03 µM	4.42 ± 0.45 µM	150 to 151 °C	moderate inhibitory activity	
CC(=O)/C=C/c1cnc2ccc(-c3ccc(F)cc3)cc2c1Nc1cccc(C(F)(F)F)c1 [HTL-3-12, (E)-6-(4-fluoro)phenyl-4-[3-(trifluoromethyl)phenyl]aminoquinoline-3-butenone]	> 200 µM	>200 µM	167 to 169 °C		
CCOC(=O)/C=C/c1ccc2ncc3ccc(=O)n(-c4cccc(C(F)(F)F)c4)c3c2c1 [HTL-7-26, (E)-9-[2-ethoxycarbonyl-vinyl]-2-oxo-1-[3-(trifluoromethyl)phenyl]-1,2-dihydrobenzo[h][1,6]naphthyridine]	0.28 ± 0.2 µM	1.29 ± 0.57 µM	210 to 212 °C	moderate inhibitory activity	
N#C/C=C/c1ccc2ncc3oc(=O)n(-c4cccc(C(F)(F)F)c4)c3c2c1 [HTL-6-32, (E)-8-(2-cyano-vinyl)-1-[3-(trifluoromethyl)phenyl]oxazolo[5,4-c]quinolin-2(1H)-one]	> 200 µM	>200 µM	235 to 237 °C		
O=c1oc2cnc3ccc(-c4ccoc4)cc3c2n1-c1cccc(C(F)(F)F)c1 [HTL-5-25, 8-(3-furyl)-1-[3-(trifluoromethyl)phenyl]oxazolo[5,4-c]quinolin-2(1H)-one]	> 200 µM	>200 µM	276 to 277 °C		
CCCc1ccc(-c2ccc3ncc4oc(=O)n(-c5cccc(C(F)(F)F)c5)c4c3c2)cc1 [HTL-5-34, 8-(4-propyl)phenyl-1-[3-(trifluoromethyl)phenyl]oxazolo[5,4-c]quinolin-2(1H)-one]	> 200 µM	>200 µM	220 to 221 °C		
N#Cc1cncc(-c2ccc3ncc4oc(=O)n(-c5cccc(C(F)(F)F)c5)c4c3c2)c1 [HTL-5-36, 8-[3-(5-cyano)pyridyl]-1-[3-(trifluoromethyl)phenyl]oxazolo[5,4-c]quinolin-2(1H)-one]	> 200 µM	13.41 ± 0.18 µM	262 to 263 °C		
CCCCC(=O)Nc1ccc(-c2ccc3ncc4oc(=O)n(-c5cccc(C(F)(F)F)c5)c4c3c2)cn1 [WSX-1-24, 8-[3-(6-valerylamino)pyridyl]-1-[3-(trifluoromethyl)phenyl]oxazolo[5,4-c]quinolin-2(1H)-one]	> 200 µM	4.27 ± 2.83 µM	231 to 232 °C		
O=c1oc2cnc3ccc(-c4ccc(Cl)cc4)cc3c2n1-c1cccc(C(F)(F)F)c1 [HTL-5-33, 8-(4-chloro)phenyl-1-[3-(trifluoromethyl)phenyl]oxazolo[5,4-c]quinolin-2(1H)-one]	> 200 µM	>200 µM	283 to 286 °C		
(E)-6-[3-(N-6-benzyloxyamido)pyridyl]-4-[3-(trifluoromethyl)phenyl]aminoquinoline-3-butenone [HTL-7-22]		9.4 ± 8.0 µM			> 200 µM
O=c1ccc2cnc3ccc(Nc4ccc(C(F)(F)F)cc4)cc3c2n1-c1cccc(C(F)(F)F)c1 [HTL-6-16, 9-[4-(trifluoromethyl)phenyl]imino-2-oxo-1-[3-(trifluoromethyl)phenyl]-1,2-dihydrobenzo[h][1,6]naphthyridine]	> 200 µM	7.06 ± 0.23 µM			
